Experimental findings from patent US20230011571A1, “SMALL MOLECULE FURIN INHIBITORS FOR TREATING INFECTIOUS DISEASES” (BP Asset V, Inc., priority 2019, published 2023) are described below.

Holding throughout (assay type): cell-based
One test deals with dengue virus (DENV). Briefly: microbe, parasite or virus in culture. The following applies: Dengue virus, Vero, 120 h, read-out: Percent viral inhibition DENY.
Another test relates to Marburg virus (MARV). The test is described as follows: organism not typed. To be noted: Vero, 72 h, read-out: Percent viral inhibition MARV.
Test [1] has as its system Chikungunya virus (CHIKV). Briefly: microbe, parasite or virus in culture. The following applies: Chikungunya virus, Vero, 48 h, read-out: Percent viral inhibition CHKV.

Structures are written as SMILES. Counter-ions that a name gives are not always drawn.

By inhibition is commonly meant the drop in the measured response relative to a control, in per cent. `CS(=O)(=O)NCC1CCN(Cc2cc(Oc3ccc(N4CCN(CCC(=O)O)CC4)nc3)nc(-c3cc(Cl)cc(Cl)c3)c2)CC1` [Example 44, 3-(4-(5-((6-(3,5-dichlorophenyl)-4-((4-(methylsulfonamidomethyl)piperidin-1-yl)methyl)pyridin-2-yl)oxy)pyridin-2-yl)piperazin-1-yl)propanoic acid]: the inhibition at 1 µM is 69% with dengue virus (DENV), 49% with Marburg virus (MARV) and 35.5% in test [1].
As to `CNC(=O)NCC1CCN(Cc2cc(Oc3cnc(N4CCN(C5CC(C(=O)O)C5)CC4)nc3)nc(-c3cc(Cl)cc(Cl)c3)c2)CC1` (stereo not drawn) [Example 221, 3-(4-(5-((6-(3,5-dichlorophenyl)-4-((4-((3-methylureido)methyl)piperidin-1-yl)methyl)pyridin-2-yl)oxy)pyrimidin-2-yl)piperazin-1-yl) cyclobutanecarboxylic acid], the inhibition at 1 µM was determined as 25.9% in the test with dengue virus (DENV), 63.2% with Marburg virus (MARV) and 44.4% in test [1].
Take `O=C(O)CCC1CCN(Cc2cc(Oc3ccc(N4CCN(CCO)CC4)nc3)nc(-c3cc(Cl)cc(Cl)c3)c2)CC1` [Example 314, 3-(1-((2-(3,5-dichlorophenyl)-6-((6-(4-(2-hydroxyethyl)piperazin-1-yl)pyridin-3-yl)oxy)pyridin-4-yl)methyl)piperidin-4-yl)propanoic acid]: the inhibition at 1 µM turned out to be 7.86% in the test on dengue virus (DENV), 52.1% in the test with Marburg virus (MARV) and 32% in test [1].
The like results for `CC(CCN1CCN(c2ncc(Oc3cc(CN4CCC(CCO)CC4)cc(-c4cc(Cl)cc(Cl)c4)n3)cn2)CC1)C(=O)O` (stereo not drawn) [Example 57, 4-(4-(5-((6-(3,5-dichlorophenyl)-4-((4-(2-hydroxyethyl)piperidin-1-yl)methyl)pyridin-2-yl)oxy)pyrimidin-2-yl)piperazin-1-yl)-2-methylbutanoic acid] were, in that order, 37.6%, 54.4% and 21.1%.
`CN1CCCN(c2ccc(Oc3cc(CN4CCC(CC(=O)O)CC4)cc(-c4cc(Cl)cc(Cl)c4)n3)nn2)CC1` [Example 356, 2-(1-((2-(3,5-dichlorophenyl)-6-((6-(4-methyl-1,4-diazepan-1-yl)pyridazin-3-yl)oxy)pyridin-4-yl)methyl)piperidin-4-yl)acetic acid]: the inhibition at 1 µM was determined as 49.3% in the test with dengue virus (DENV), 54.3% in the test with Marburg virus (MARV) and 30.8% in test [1].
The like results for `CC(=O)NCC1CCN(Cc2cc(Oc3ccc(N4CCN(CCC(=O)O)CC4)nc3)nc(-c3cc(Cl)cc(Cl)c3)c2)CC1` [Example 11, 3-(4-(5-((4-((4-(Acetamidomethyl)piperidin-1-yl)methyl)-6-(3,5-dichlorophenyl)pyridin-2-yl)oxy)pyridin-2-yl)piperazin-1-yl)propanoic acid, 4 hydrochloride] were, in that order, 30.2%, 41.6% and 17.9%.
The like results for `CN1CCN(c2cnc(Oc3cc(CN4CCC(CC(=O)O)CC4)cc(-c4cc(Cl)cc(Cl)c4)n3)cn2)CC1` [Example 339, 2-(1-((2-(3,5-dichlorophenyl)-6-((5-(4-methylpiperazin-1-yl)pyrazin-2-yl)oxy)pyridin-4-yl)methyl)piperidin-4-yl)acetic acid] were, in that order, 0%, 52.1% and 23.6%.
The like results for `COC1CN(C)CCN(c2ncc(Oc3cc(CN4CCC(CC(=O)O)CC4)cc(-c4cc(Cl)cc(Cl)c4)n3)cn2)C1` (stereo not drawn) [Example 144, 2-(1-((2-(3,5-dichlorophenyl)-6-((2-(6-methoxy-4-methyl-1,4-diazepan-1-yl)pyrimidin-5-yl)oxy)pyridin-4-yl)methyl)piperidin-4-yl)acetic acid] were, in that order, 35%, 56.6% and 32.6%.
For `CN1CCN(c2ncc(Oc3cc(CN4CCO[C@H](CO)CC4)cc(-c4cc(Cl)cc(Cl)c4)n3)cn2)CC1` [Example 330, (S)-(4-((2-(3,5-dichlorophenyl)-6-((2-(4-methylpiperazin-1-yl)pyrimidin-5-yl)oxy)pyridin-4-yl)methyl)-1,4-oxazepan-7-yl)methanol], the inhibition at 1 µM turned out to be 26.4% in the test with dengue virus (DENV), 58.7% with Marburg virus (MARV) and 24.6% in test [1].
Taken in the same sequence, the figures for `NS(=O)(=O)CCCN1CCN(c2ncc(Oc3cc(CN4CCC(CC(=O)O)CC4)cc(-c4cc(Cl)cc(Cl)c4)n3)cn2)CC1` [Example 246, 2-(1-((2-(3,5-dichlorophenyl)-6-((2-(4-(3-sulfamoylpropyl)piperazin-1-yl)pyrimidin-5-yl)oxy)pyridin-4-yl)methyl)piperidin-4-yl)acetic acid] were 50.8%, 39.9% and 24.6%.
Taken in the same sequence, the figures for `COC(=O)NCC1CCN(Cc2cc(Oc3cnc(N4CCN(CCC(=O)O)[C@@H](C)C4)nc3)nc(-c3cc(Cl)cc(Cl)c3)c2)CC1` [Example 294, (S)-3-(4-(5-((6-(3,5-dichlorophenyl)-4-((4-(((methoxycarbonyl)amino)methyl)piperidin-1-yl)methyl)pyridin-2-yl)oxy)pyrimidin-2-yl)-2-methyl-piperazin-1-yl)propanoic acid] were 57.7%, 54.2% and 28.7%.
Taken in the same sequence, the figures for `CN1C[C@@H]2C[C@H]1CN2c1cnc(Oc2cc(CN3CCC(CC(=O)O)CC3)cc(-c3cc(Cl)cc(Cl)c3)n2)cn1` [Example 346, 2-(1-((2-(3,5-dichlorophenyl)-6-((5-((1S,4S)-5-methyl-2,5-diazabicyclo[2.2.1]heptan-2-yl)pyrazin-2-yl)oxy)pyridin-4-yl)methyl)piperidin-4-yl)acetic acid] were 54.6%, 56.8% and 9.36%.
For the molecule `CN1CCN(c2ncc(Oc3cc(CN4CCC(OC5(C(=O)O)CC5)CC4)cc(-c4cc(Cl)cc(Cl)c4)n3)cn2)CC1` [Example 143, 1-((1-((2-(3,5-dichlorophenyl)-6-((2-(4-methylpiperazin-1-yl)pyrimidin-5-yl)oxy)pyridin-4-yl)methyl)piperidin-4-yl)oxy)cyclopropanecarboxylic acid], the inhibition at 1 µM was determined as 34.5% in the test on dengue virus (DENV), 40.5% with Marburg virus (MARV) and 34.4% in test [1].
The like results for `CCOC(=O)NCC1CCN(Cc2cc(Oc3cnc(N4CCN(CCC(=O)O)CC4)nc3)nc(-c3cc(Cl)cc(Cl)c3)c2)CC1` [Example 267, 3-(4-(5-((6-(3,5-dichlorophenyl)-4-((4-(((ethoxycarbonyl)amino)methyl)piperidin-1-yl)methyl)pyridin-2-yl)oxy)pyrimidin-2-yl)piperazin-1-yl) propanoic acid] were, in that order, 37%, 65% and 34.6%.
Taken in the same sequence, the figures for `CN1CCN(c2ncc(Oc3cc(CN4CCC(NC(=O)NS(C)(=O)=O)CC4)cc(-c4cc(Cl)cc(Cl)c4)n3)cn2)CC1` [Example 328, N-((1-((2-(3,5-dichlorophenyl)-6-((2-(4-methylpiperazin-1-yl)pyrimidin-5-yl)oxy)pyridin-4-yl)methyl)piperidin-4-yl)carbamoyl)methanesulfonamide] were 55.8%, 49.5% and 37.5%.
Taken in the same sequence, the figures for `COCCN1CCN(c2ncc(Oc3cc(CN4CCC(CC(=O)O)CC4)cc(-c4cc(Cl)cc(Cl)c4)n3)cn2)CC1` [Example 247, 2-(1-((2-(3,5-dichlorophenyl)-6-((2-(4-(2-methoxyethyl)piperazin-1-yl)pyrimidin-5-yl)oxy)pyridin-4-yl)methyl)piperidin-4-yl)acetic acid] were 50%, 49.7% and 31.1%.
On to `CCN1C[C@@H]2C[C@H]1CN2c1ccc(Oc2cc(CN3CCC(CC(=O)O)CC3)cc(-c3cc(Cl)cc(Cl)c3)n2)nn1` [Example 366, 2-(1-((2-(3,5-dichlorophenyl)-6-((6-((1S,4S)-5-ethyl-2,5-diazabicyclo[2.2.1]heptan-2-yl)pyridazin-3-yl)oxy)pyridin-4-yl)methyl)piperidin-4-yl)acetic acid], for which the inhibition at 1 µM with dengue virus (DENV) turned out to be 48.5%; in the test on Marburg virus (MARV), 23.1%; in test [1], 6.17%.
For the molecule `CC(=O)NCC1CCN(Cc2cc(Oc3cnc(N4CCN(CCC(N)=O)CC4)nc3)cc(-c3cc(Cl)cc(Cl)c3)c2)CC1` [Example 170, 3-(4-(5-((5-((4-(acetamidomethyl)piperidin-1-yl)methyl)-3′,5′-dichloro-[1,1′-biphenyl]-3-yl)oxy)pyrimidin-2-yl)piperazin-1-yl)propanamide], the inhibition at 1 µM was determined as 57.6% in the test on dengue virus (DENV), 10.3% in the test on Marburg virus (MARV) and 7.29% in test [1].
Taken in the same sequence, the figures for `CN1CCN(c2ncc(Oc3cc(CN4CCC(CCS(N)(=O)=O)CC4)cc(-c4cc(Cl)cc(Cl)c4)n3)cn2)CC1` [Example 87, 2-(1-((2-(3,5-dichlorophenyl)-6-((2-(4-methylpiperazin-1-yl)pyrimidin-5-yl)oxy)pyridin-4-yl)methyl)piperidin-4-yl)ethanesulfonamide] were 30.2%, 30.3% and 16.9%.
The like results for `CC(=O)NCC1CCN(Cc2cc(Oc3cnc(N4CCN(CCC(N)=O)CC4)cn3)nc(-c3cc(Cl)cc(Cl)c3)c2)CC1` [Example 391] were, in that order, 51.4%, 35.4% and 14%.
For the molecule `CC(C)N1CCN(c2ncc(Oc3cc(CN4CCC(CC(=O)O)CC4)cc(-c4cc(Cl)cc(Cl)c4)n3)cn2)CC1` [Example 235, 2-(1-((2-(3,5-dichlorophenyl)-6-((2-(4-isopropylpiperazin-1-yl)pyrimidin-5-yl)oxy)pyridin-4-yl)methyl)piperidin-4-yl)acetic acid], the inhibition at 1 µM in the test with dengue virus (DENV) was 0%; with Marburg virus (MARV), 69.8%; in test [1], 27.4%.
